Laboratory results from patent publication US20170065670A1, “METHODS FOR TREATING IMMUNE MEDIATED NEUROLOGICAL DISEASES” (Trinity Therapeutics, Inc., priority 2005, published 2017).

Assays:
human C1q = assay: Reverse ELISA: inhibition of PAP immune complex binding to C1q coated plates; settings: summary of Table 1
Text: (§1) For this reason, a “reverse ELISA” technique was used to assess binding of the Fc region to ligands that bind to immune complexed IgG Fc. In these assays, the enzyme (HRP) was not covalently conjugated to the Fc portion of the secondary antibody. Rather, a preformed immune complex of peroxidase-rabbit (or mouse) anti-peroxidase IgG (“PAP” complex) was used. […] In the reverse ELISA system, an Fc CH2-CH3 cleft binding ligand (e.g., purified human C1q) was bound to microwell plates. In the absence of competitor, PAP complexes bound to the immobilized ligand and the reaction between HRP and its substrate produced a signal. This signal was reduced by polypeptides and compounds, such as those provided herein, that inhibited PAP binding to the immobilized ligand.
PAP complexes were formed by mixing 2 μl of rabbit anti-peroxidase (Sigma Chemicals, St. Louis, Mo.) with 50 μl of peroxidase (Sigma-Aldrich, St. Louis, Mo.) in 1 ml distilled water. PAP (100 μl) were pre-incubated with 100 μl of peptide or human C1q (Quidel Corp., San Diego, Calif.) for one hour. The C1q/PAP and peptide/PAP mixtures (100 μl) were then incubated with C1q coated plates for 30 minutes. After washing, plates were incubated with 2-2′-azinobis-3-ethylbenzthiazoline-6-sulfonate (ATBS; Quidel Corp.) for 15 minutes and read at 405 nm.

FcγIIa = assay: Reverse ELISA: inhibition of PAP immune complex binding to FcγIIa coated plates; settings: summary of Table 2, FcR overall (FcγIIa, FcγIIb, FcγIII)
Text: as §1
Once the reverse ELISA protocol was established using the C1q assay, the assay was redesigned using FcγIIa, FcγIIb and FcγIII in place of C1q. Highly purified FcγIIa, FcγIIb and FcγIII were immunoadsorbed onto plastic microwells. […]
Falcon microtiter plates were coated with 1:10 dilutions of highly purified FcγIIa, FcγIIb and FcγIII and incubated for 24 hours. […] After washing, plates were incubated with ABTS substrate for 15 minutes and read at 405 nm.

human wtSOD1 = assay: Reverse ELISA: inhibition of immune complexed IgG (PAP) binding to wt SOD1; settings: for wt SOD1 (read at 405 nm): plates coated 24 h with 0.8 μg/ml human wtSOD1, PAP/peptide 60 min, lower = more inhibition, positive control 2.900; for inhibition of wt SOD1 binding to PAP (in words): summary of Table 3
Text: as §1
(§2) PAP complexes were formed as described in Example 2. PAP (100 μl) were pre-incubated with 100 μl of peptide for one hour, and control (200 μl of PAP) also was incubated for one hour. 100 μl of either PAP or PAP/peptide was added to Falcon microtiter plates that had been coated for 24 hours with either 0.8 μg/ml human wtSOD1 (Sigma-Aldrich) or apo (non Cu, Zn containing) monomeric mutant SOD1 C57S (mSOD1C57S). The PAP or peptide/PAP mixtures (100 μl) were added after one hour to either wt SOD1 or mSOD1C57S coated plates for 60 minutes. After washing, plates were incubated with ATBS for 15 minutes and read at 405 nm.

[1] = system: apo (non Cu, Zn containing) monomeric mutant SOD1 C57S (mSOD1C57S); assay: Reverse ELISA: inhibition of immune complexed IgG (PAP) binding to mutant SOD1; settings: for mSOD1C57S (read at 405 nm): plates coated 24 h with mSOD1C57S, PAP/peptide 60 min, lower = more inhibition, positive control […]; for inhibition of mSOD1C57S binding to PAP (in words): summary of Table 3
Text: as §1, §2

human wt α-synuclein = assay: Reverse ELISA: inhibition of immune complexed IgG (PAP) binding to wt α-synuclein
Text: as §1
PAP complexes were formed mixing 2 μl of rabbit anti-peroxidase (Sigma) with 50 μl of peroxidase (Sigma) in 1 ml distilled water. PAP (100 μl) were pre-incubated with 100 μl of peptide for one hour. Control PAP (200 μl) also was incubated for one hour. 100 μl of either PAP or PAP/peptide was added to Falcon microtiter plates that had been coated for 24 or 48 hours with 167 μg/ml human wt α-synuclein (Sigma-Aldrich), and the plates were incubated for 60 minutes. After washing, plates were incubated with ATBS for 30 minutes and then read at 405 nm.

[2] = system: human wt tau protein (441 residues); assay: Reverse ELISA: inhibition of immune complexed IgG (PAP) binding to wt tau
Text: as §1
PAP complexes were formed by mixing 2 μl of rabbit anti-peroxidase with 50 μl of peroxidase in 1 ml distilled water. PAP (100 μl) were pre-incubated with 100 μl of peptide for one hour. Control PAP (200 μl) also was incubated for one hour. 100 μl of either PAP or PAP/peptide was added to Falcon microtiter plates that had been coated for 24 hours with 16.7 μg/ml human wt tau protein (441 residues; Sigma-Aldrich). The PAP or peptide/PAP mixtures (100 μl) were added after one hour to tau coated plates and incubated for 60 minutes. After washing, plates were incubated with ATBS for 15 minutes, and read at 405 nm.

[3] = system: human wt β amyloid peptide 1-40; assay: Reverse ELISA: inhibition of immune complexed IgG (PAP) binding to wt β-amyloid peptide 1-40; settings: summary of Table 7
Text: as §1
Different fragments of the Aβ peptide contribute to the amyloid plaques pathognomic for AD, and these Aβ fragments appear to stimulate microglial activation and subsequent AD neuropathology. Thus, experiments were conducted to test Aβ 1-40 for binding to immune complexes, and to determine whether the inhibitors described herein can inhibit binding of PAP immune complexes to Aβ peptide. PAP complexes were prepared by mixing 2 μl of rabbit anti-peroxidase with 50 μl of peroxidase in 1 ml distilled water. […] After washing, plates were incubated with ATBS for 15 minutes and read at 405 nm.

Highly purified FcγIIa = Highly purified FcγIIa (UniProt P12318); assay: reverse ELISA: PAP without peptide on FcγIIa-coated plate
Highly purified FcγIIa, sequence (P12318 34-217 limits assumed): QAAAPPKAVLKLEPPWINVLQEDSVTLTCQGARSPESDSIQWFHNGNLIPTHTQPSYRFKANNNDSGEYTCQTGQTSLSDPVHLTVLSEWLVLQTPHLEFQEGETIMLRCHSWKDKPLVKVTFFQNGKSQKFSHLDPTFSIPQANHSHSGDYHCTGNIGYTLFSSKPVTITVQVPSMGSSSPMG

[4] = target: Human wt α-synuclein (Sigma-Aldrich) (human) (UniProt P37840); assay: reverse ELISA: PAP without peptide on α-synuclein-coated plate (24 h coating)
[5] = target: Preformed immune complex of peroxidase-rabbit anti-peroxidase IgG (PAP complex) (horseradish) (UniProt P00433); assay: reverse ELISA competition: peptide pre-incubated with PAP; competitor: immobilised mSOD1C57S
Preformed immune complex of peroxidase-rabbit anti-peroxidase IgG (PAP complex) (horseradish), sequence (P00433 31-338, one chain of several): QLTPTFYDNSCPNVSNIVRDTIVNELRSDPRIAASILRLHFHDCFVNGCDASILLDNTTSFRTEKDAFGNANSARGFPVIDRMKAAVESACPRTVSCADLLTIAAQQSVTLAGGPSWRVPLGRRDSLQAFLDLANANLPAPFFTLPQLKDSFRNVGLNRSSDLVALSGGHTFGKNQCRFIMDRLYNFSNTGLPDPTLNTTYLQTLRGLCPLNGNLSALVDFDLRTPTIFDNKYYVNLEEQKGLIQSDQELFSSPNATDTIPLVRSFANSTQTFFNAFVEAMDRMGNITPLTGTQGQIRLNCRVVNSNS

[6] = target: Preformed immune complex of peroxidase-rabbit anti-peroxidase IgG (PAP complex) (horseradish) (UniProt P00433); assay: reverse ELISA competition: peptide pre-incubated with PAP; competitor: immobilised human wt SOD1
[7] = target: Preformed immune complex of peroxidase-rabbit anti-peroxidase IgG (PAP complex) (horseradish) (UniProt P00433); assay: reverse ELISA competition: peptide pre-incubated with PAP; competitor: immobilised human wt α-synuclein, plate coated 24 h
[8] = target: Preformed immune complex of peroxidase-rabbit anti-peroxidase IgG (PAP complex) (horseradish) (UniProt P00433); assay: reverse ELISA competition: peptide pre-incubated with PAP; competitor: immobilised human wt α-synuclein, plate coated 48 h

APPCARHLGELVWCT
inhibition of C1q binding (rank in words) (human C1q): next best result

APPDCAWHLGELVWCT
inhibition of C1q binding (rank in words) (human C1q): greatest inhibition | inhibition of FcR binding to PAP (rank in words) (FcγIIa): greatest inhibition | wt SOD1 (read at 405 nm) (human wtSOD1): 0.277 | inhibition of wt SOD1 binding to PAP (in words) (human wtSOD1): greatest inhibition | inhibition of wt SOD1 binding to PAP (in words) (human wtSOD1; listed as peptide 16): best inhibition | mSOD1C57S (read at 405 nm) [1]: 0.226 | inhibition of mSOD1C57S binding to PAP (in words) [1]: greatest inhibition | inhibition of mSOD1C57S binding to PAP (in words) ([1]; listed as peptide 16): best inhibition | Wt α-synuclein (read at 405 nm) (human wt α-synuclein; plates coated 24 h with 167 μg/ml α-synuclein, lower = more inhibition, positive control 1.433, substrate only 0.061): 0.088 | inhibition of α-synuclein binding to PAP (rank in words) (human wt α-synuclein; summary of Table 5): greatest inhibition | Wt tau protein (read at 405 nm) ([2]; plates coated 24 h with 16.7 μg/ml tau, lower = more inhibition, positive control 0.695, substrate only 0.060): 0.059 | inhibition of human wt tau protein binding to PAP (rank in words) ([2]; summary of Table 6): greatest inhibition

DCAWHLGELVWCT
wt SOD1 (read at 405 nm) (human wtSOD1): 0.292 | inhibition of wt SOD1 binding to PAP (in words) (human wtSOD1; listed as peptide 2): inhibited | mSOD1C57S (read at 405 nm) [1]: 0.592 | inhibition of mSOD1C57S binding to PAP (in words) ([1]; listed as peptide 2): inhibited | inhibition of human wt β amyloid peptide binding to PAP (rank in words) [3]: greatest inhibition

Preformed immune complex of peroxidase-rabbit anti-peroxidase IgG (PAP complex) (from UniProt P00433 31-338)
OD 405 nm (Highly purified FcγIIa): 1.6 OD | OD 405 nm [4]: 1.43 OD

B1: Peptide … (SEQ ID NO:16) (peptide)
peptide: APPDCAWHLGELVWCT
OD 405 nm [5]: 0.226 OD | OD 405 nm [6]: 0.277 OD | OD 405 nm [7]: 0.088 OD | OD 405 nm [8]: 0.136 OD
